Test results reported in doi:10.1101/2025.07.03.662851v1 (biorxiv, 2025).

Target: T1, recombinant wild-type human asparagine synthetase (ASNS) (Homo sapiens, UniProt P08243)
T1 sequence (P08243 2-561): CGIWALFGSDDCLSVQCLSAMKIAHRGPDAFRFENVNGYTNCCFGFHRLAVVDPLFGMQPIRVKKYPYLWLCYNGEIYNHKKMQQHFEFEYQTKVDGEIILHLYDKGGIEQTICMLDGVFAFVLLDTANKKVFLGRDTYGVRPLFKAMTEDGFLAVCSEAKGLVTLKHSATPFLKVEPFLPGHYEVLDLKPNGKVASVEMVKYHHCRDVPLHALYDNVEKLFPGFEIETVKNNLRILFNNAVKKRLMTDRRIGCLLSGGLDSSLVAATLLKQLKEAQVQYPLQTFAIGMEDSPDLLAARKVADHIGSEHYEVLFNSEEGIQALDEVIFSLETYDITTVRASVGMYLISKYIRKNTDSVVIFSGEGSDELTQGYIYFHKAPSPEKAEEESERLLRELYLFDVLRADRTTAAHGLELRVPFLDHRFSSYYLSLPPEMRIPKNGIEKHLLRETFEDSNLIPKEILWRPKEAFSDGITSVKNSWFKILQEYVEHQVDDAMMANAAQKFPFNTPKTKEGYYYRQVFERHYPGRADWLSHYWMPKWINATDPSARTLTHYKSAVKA
Assay: PPi production, continuous NADH-coupled assay
Format: biochemical

Ki: 0.4 nM
Structure (SMILES): CC[C@H](N)C(=O)N1C[C@@H](c2ccc(F)cc2)[C@H](O)[C@@H]1C(=O)NC(c1ccccc1)c1ccccc1 [ASX-173]
